# Assay: Solubility in pure water with pH 7 at 25° C.
# Type: physicochemical
# Details: pH 7, 25° C., compared with the coloring material
# Procedure: In order to inspect depositing quality due to the influence of pH, the solubility in pure water with pH7 at 25° C. has been compared between the compound represented by the general formula (I) or a salt thereof and the compound represented by the general formula (II) to find that the compound represented by the general formula (II) has a lower solubility than the compound represented by the general formula (I) or a salt thereof. This fact also has supported that the compound represented by the general formula (II) has a high depositing quality.
compound,measurement,value
O=C([O-])c1ccccc1Nc1nc(O)nc(Nc2ccccc2C(=O)[O-])n1.[Na+].[Na+] [Exemplified Compound B],solubility in pure water,lower than the solubility of Exemplified Compound A
